The values below come from patent US5266698A, “Certain aryl and cycloalkyl fused imidazopyrazinediones; a new class of GABA brain receptor ligands” (Neurogen Corporation, priority 1992, dated 1993).

For orientation: IC50 means the concentration that gives 50% inhibition.

The test system of assay [1] is GABA receptor. The settings on record: stereoisomers of bicuculline; Tallman et al., 1978, Nature, 274: 383-85; cited from earlier work.
The target in assay [2] is GABAa receptor (benzodiazepine receptor). The assay can be described thus: GABAa receptor binding assay ([3H]-Flumazenil (RO15-1788) displacement, rat cortical tissue). The settings on record: rat cortical tissue homogenate; 0.5 nM 3H-RO15-1788; 30 min at 4° C., pH 7.4; nonspecific: 1.0 mM diazepam. How it is done:
The pharmaceutical utility of compounds of this invention are indicated by the following assay for GABAa receptor activity.
Assays are carried out as described in Thomas and Tallman (J. Bio. Chem. 156: 9838-9842, J. Neurosci. 3:433-440, 1983). Rat cortical tissue is dissected and homogenized in 25 volumes (w/v) of 0.05M Tris HCl buffer (pH 7.4 at 4° C.). The tissue homogenate is centrifuged in the cold (4°) at 20,000×g for 20'. The supernatant is decanted and the pellet is rehomogenized in the same volume of buffer and again centrifuged at 20,000×g. The supernatant is decanted and the pellet is frozen at -20° C. overnight. The pellet is then thawed and rehomogenized in 25 volume (original wt/vol) of buffer and the procedure i carried out twice. The pellet is finally resuspended in 50 volumes (w/vol of 0.05M Tris HCl buffer (pH 7.4 at […]).
Incubations contain […] of tissue homogenate, […] of radioligand 0.5 nM (^3 H-RO15-1788 [^3 H-Flumazenil] specific activity 80 Ci/mmol), drug or blocker and buffer to a total volume of […]. Incubations are carried for 30 min at 4° C. then are rapidly filtered through GFB filters to separate free and bound ligand. Filters are washed twice and fresh 0.05M Tris HCl buffer (pH 7.4 at 4° C.) and counted in a liquid scintillation counter. 1.0 mM diazepam is added to some tubes to determine nonspecific binding. Data are collected in triplicate determinations, averaged and % inhibition of total specific binding is calculated. Total Specific Binding=Total-Nonspecific. In some cases, the amounts of unlabeled drugs is varied and total displacement curves of binding are carried out. Data are converted to a form for the calculation of IC50 and Hill Coefficient (nH).

In the case of `CN1CCc2cc3c(cc2C1C1OC(=O)c2c1ccc1c2OCO1)OCO3` (single isomer, unassigned; (+)) [(+) bicuculline], in assay [1], the “Block of enhancement of benzodiazepine binding by GABA agonists” value is “blocked”.

As for `CN1CCc2cc3c(cc2C1C1OC(=O)c2c1ccc1c2OCO1)OCO3` (single isomer, unassigned; (-)) [(-) bicuculline], the “Block of enhancement of benzodiazepine binding by GABA agonists” value in assay [1] is “much less active”.

In assay [2], `O=c1c2c[nH]c3cccnc3n-2c(=O)n1-c1ccccc1` [Compound 1, 2-Phenyl-imidazo[1,5,a]pyrido[3,2-e]pyrazine-1,3(2H,5H)-dione] displayed an IC50 of 0.01 µM.

In assay [2], `COc1ccc(-n2c(=O)c3c[nH]c4cccnc4n-3c2=O)cc1` [Compound 5, 2-(4-Methoxyphenyl)-imidazo[1,5,a]pyrido[3,2-e]pyrazine-2,3(2H,5H)-dione] gave a half-maximal inhibitory concentration (IC50) of 0.009 µM.

In assay [2], `CCOc1ccc(-n2c(=O)c3c[nH]c4cccnc4n-3c2=O)cc1` [Compound 8, 2-(4-Ethoxyphenyl)-imidazo[1,5,a]pyrido[3,2-e]pyrazine-2,3(2H,5H)-dione] yielded a half-inhibitory concentration (IC50) of 0.02 µM.
